Values quoted from earlier work, collected in patent US20060142288A1, “Combinations and methods for headaches” (priority 2004, published 2006).

How the values were obtained:
[1] = 650 mg/day, migraine patients
[2] = 13.5 mg/kg/day or ~1 g per day
[3] = 500 mg daily, six year trial
canine COX-3 = target: T1, canine COX-3 (Canis lupus familiaris, UniProt Q8HZR1); settings: canine COX-3 compared with murine COX-1 and COX-2
T1 sequence (Q8HZR1 1-633 isoform Q8HZR1-2): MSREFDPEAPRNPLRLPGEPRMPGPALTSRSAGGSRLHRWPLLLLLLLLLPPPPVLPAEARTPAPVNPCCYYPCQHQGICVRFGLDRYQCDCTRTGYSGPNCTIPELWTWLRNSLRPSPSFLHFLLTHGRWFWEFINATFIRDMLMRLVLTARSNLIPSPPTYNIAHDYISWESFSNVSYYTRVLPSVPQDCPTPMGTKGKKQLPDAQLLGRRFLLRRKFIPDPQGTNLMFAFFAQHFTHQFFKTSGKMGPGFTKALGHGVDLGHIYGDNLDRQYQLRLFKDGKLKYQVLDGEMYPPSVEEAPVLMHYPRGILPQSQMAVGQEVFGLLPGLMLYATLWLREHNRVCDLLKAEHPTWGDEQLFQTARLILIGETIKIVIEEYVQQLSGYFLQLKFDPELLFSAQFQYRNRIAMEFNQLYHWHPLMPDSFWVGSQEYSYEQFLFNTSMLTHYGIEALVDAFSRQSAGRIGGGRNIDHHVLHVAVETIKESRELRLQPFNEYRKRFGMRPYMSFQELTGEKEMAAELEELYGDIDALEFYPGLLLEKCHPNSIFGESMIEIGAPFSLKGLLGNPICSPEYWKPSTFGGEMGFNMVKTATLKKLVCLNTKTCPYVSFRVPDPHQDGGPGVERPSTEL

[4] = ASA 500 mg TID, metoprolol in the same study

CC(=O)Oc1ccccc1C(=O)O [ASA, acetylsalicyclic acid]
patients with a reduction of more than 50% in headache frequency [1]: 9 of 12
overall migraine frequency (500 mg TID, p<0.001): reduced significantly
subjects with a reduction of attacks >50% (number of subjects) [4]: 3 of 22
subjects with a reduction of attacks >50% (percent of subjects) [4]: 14%
frequency, severity and duration of migraine attacks [2]: significantly decrease
reduction of the incidence of migraine [3]: 30%

CC(=O)Nc1ccc(O)cc1 [acetaminophen]
selective inhibition of COX-3 (canine COX-3): selectively inhibit

Cc1cc(=O)n(-c2ccccc2)n1C [antipyrine]
selective inhibition of COX-3 (canine COX-3): selectively inhibit

Cc1c(N(C)CS(=O)(=O)[O-])c(=O)n(-c2ccccc2)n1C.[Na+] [dipyrone]
selective inhibition of COX-3 (canine COX-3): selectively inhibit

CCOc1ccc(NC(C)=O)cc1 [phenacetin]
selective inhibition of COX-3 (canine COX-3): selectively inhibit
